Tests used:
Cholinesterase = Cholinesterase (Homo sapiens, UniProt P06276); assay: Inhibition of human plasmatic BChE after 5 mins by Ellman's method; design: species or system Plasma
Acetylcholinesterase [1] = target: T1, Acetylcholinesterase (Homo sapiens, UniProt P22303); assay: Inhibition of human recombinant AChE after 5 mins by Ellman's method
Acetylcholinesterase [2] = target: T1, Acetylcholinesterase; assay: Inhibition of human recombinant AChE by Lineweaver-Burk plot analysis
Acetylcholinesterase [3] = target: T1, Acetylcholinesterase; assay: Non competitive inhibition of human recombinant AChE using ATChCl as substrate by Lineweaver-Burk plot analysis

Cholinesterase, sequence (P06276 whole entry): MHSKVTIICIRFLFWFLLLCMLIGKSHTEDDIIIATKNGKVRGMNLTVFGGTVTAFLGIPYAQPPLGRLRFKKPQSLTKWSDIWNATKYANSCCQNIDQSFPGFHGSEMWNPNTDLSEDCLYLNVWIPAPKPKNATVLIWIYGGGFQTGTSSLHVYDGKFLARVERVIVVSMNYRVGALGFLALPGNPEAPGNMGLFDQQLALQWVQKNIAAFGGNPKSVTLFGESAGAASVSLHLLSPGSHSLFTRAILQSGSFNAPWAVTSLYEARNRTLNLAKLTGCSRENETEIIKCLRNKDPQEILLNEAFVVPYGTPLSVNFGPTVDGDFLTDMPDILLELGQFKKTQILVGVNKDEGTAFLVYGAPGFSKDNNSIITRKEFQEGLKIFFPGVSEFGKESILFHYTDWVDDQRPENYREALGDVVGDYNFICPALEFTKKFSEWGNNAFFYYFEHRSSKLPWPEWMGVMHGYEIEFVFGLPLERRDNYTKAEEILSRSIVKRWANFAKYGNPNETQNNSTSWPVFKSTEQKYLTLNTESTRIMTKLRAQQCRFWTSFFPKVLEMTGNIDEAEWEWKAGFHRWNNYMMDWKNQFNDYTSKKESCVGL
T1 sequence (P22303 whole entry): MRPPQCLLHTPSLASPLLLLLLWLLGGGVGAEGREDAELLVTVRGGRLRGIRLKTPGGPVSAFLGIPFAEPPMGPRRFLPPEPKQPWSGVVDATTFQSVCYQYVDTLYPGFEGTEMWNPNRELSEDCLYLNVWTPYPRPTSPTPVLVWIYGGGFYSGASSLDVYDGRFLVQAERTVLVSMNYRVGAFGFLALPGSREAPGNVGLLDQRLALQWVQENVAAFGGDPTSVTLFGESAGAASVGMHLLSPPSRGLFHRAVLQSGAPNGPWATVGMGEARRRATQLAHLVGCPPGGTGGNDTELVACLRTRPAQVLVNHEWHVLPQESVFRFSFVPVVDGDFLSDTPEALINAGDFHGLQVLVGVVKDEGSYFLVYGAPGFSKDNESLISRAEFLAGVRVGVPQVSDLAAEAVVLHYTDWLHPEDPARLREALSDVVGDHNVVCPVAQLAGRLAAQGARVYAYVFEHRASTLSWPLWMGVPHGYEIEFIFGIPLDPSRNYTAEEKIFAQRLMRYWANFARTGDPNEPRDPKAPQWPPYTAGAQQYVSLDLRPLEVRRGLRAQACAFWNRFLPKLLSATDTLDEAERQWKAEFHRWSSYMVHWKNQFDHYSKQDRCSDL

| SMILES | IC50 (Cholinesterase) | IC50 (Acetylcholinesterase [1]) | Ki (Acetylcholinesterase [2]) | Ki (Acetylcholinesterase [3]) |
| --- | --- | --- | --- | --- |
| c1cc[n+](CCCCCCC[n+]2ccc3ccccc3c2)cc1 | 1000 nM | 800 nM | – | – |
| c1cc[n+](CCCCCCCC[n+]2ccc3ccccc3c2)cc1 | 7700 nM | 140 nM | – | – |
| c1cc[n+](CCCCCCCCC[n+]2ccc3ccccc3c2)cc1 | 350 nM | 40 nM | – | – |
| c1cc[n+](CCCCCCCCCC[n+]2ccc3ccccc3c2)cc1 | 370 nM | 20 nM | – | – |
| c1cc[n+](CCCCCCCCCCC[n+]2ccc3ccccc3c2)cc1 | 700 nM | 30 nM | – | – |
| c1cc[n+](CCCCCCC[n+]2cccc3ccccc32)cc1 | 2200 nM | 540 nM | – | – |
| c1cc[n+](CCCCCCCC[n+]2cccc3ccccc32)cc1 | 2000 nM | 270 nM | – | – |
| c1cc[n+](CCCCCCCCC[n+]2cccc3ccccc32)cc1 | 1700 nM | 120 nM | – | – |
| c1cc[n+](CCCCCCCCCCC[n+]2cccc3ccccc32)cc1 | 900 nM | 17 nM | – | – |
| c1cc[n+](CCCCCCCCCCCC[n+]2cccc3ccccc32)cc1 | 680 nM | 4.7 nM | 20 nM | 10 nM |

— ChEMBL document CHEMBL3091342, “Preparation, in vitro evaluation and molecular modelling of pyridinium-quinolinium/isoquinolinium non-symmetrical bisquaternary cholinesterase inhibitors” (Bioorg Med Chem Lett, 2013)
